# How the values were obtained:
# [1] = tested on: L-DOPA-induced dyskinesias; assay: L-DOPA-induced dyskinesia (AIM) in 6-hydroxydopamine hemiparkinsonian rats; assay type: in vivo
# Procedure: (§1) Next, rats (Sprague-Dawley rats; Charles-River, Sulzfeld, Germany) were established as the animal model. The rats were kept in constant, reproducible conditions. Sprague-Dawley rats weighing about 220 to 300 g were used in the experiment. The rats were kept in groups. A light cycle of 12:12 hours was maintained (light switched on from 07:00 to 19:00 hours). For two weeks before the experiments, all the rats were kept in the same room. Water was made available ad libitum, standard animal feed was supplied once daily in an amount of 12 g per animal. All experiments were carried out between 09:00 and 17:00 hours and complied with international ethical standards and the German animal protection law. It was approved by the Animal Protection Commission, Tübingen Administrative Board, ZP 5/01.
# 24 rats were put in deep narcosis. One hemisphere of the rats was treated in each case with the neurotoxin 6-hydroxydopamine, which destroyed dopaminergic neurons in this hemisphere. […] Then the animals were treated intraperitoneally with an antiparkinsonian drug twice daily for 25 days. This comprised L-DOPA-methyl ester in an amount of 10 mg per kg of body weight with benserazide in an amount of 7.5 mg per kg of body weight (Sigma, Deisenhofen, Germany). Under this treatment the rats developed dyskinesias of the contralateral forepaws.
# Control Group: • Continuing this treatment, 12 of the 24 rats were treated additionally with PBS.
# Test Group: • The other twelve rats were treated additionally with a fluorinated amphetamine derivative 1-(3,4-difluorophenyl)-2-(N-ethylamino)propane (Formula III).
# The results for the treatment are illustrated in FIG. 2. The dyskinesia was quantified (AIM=abnormal involuntary movements) in the control group on five successive days. […] For comparison, the dyskinesia quantification of the test group, i.e., the animals additionally treated with 1-(3,4-difluorophenyl)-2-(N-ethylamino)propane (Formula (III), fMDE, 5 mg/kg), was observed. The measurements were in each case recorded 60 minutes after the animals were treated. […]
# [2] = tested on: Haloperidol-induced catalepsy; assay: Haloperidol-induced catalepsy test (descent test), model for parkinsonism; assay type: in vivo, Sprague-Dawley rats; details: for descent latency: rats after haloperidol 0.5 mg/kg, compound 5 mg/kg, FIG. 1, vehicle control about 130 seconds
# Procedure: as §1
# Haloperidol-induced catalepsy is used here as a model for parkinsonism. Haloperidol is a dopamine receptor-blocking drug. The catalepsy induced in this way comprises akinesia and rigor. The haloperidol model can be treated with all known clinically effective antiparkinsonism drugs, as described above.
# Dopamine hypofunction and the consequent parkinsonian symptoms were generated as follows.
# Control Group: • Haloperidol (Haldol, Janssen®, Germany) was diluted with phosphate buffered saline (PBS; Sigma, Deisenhofen, Germany) to a concentration of 0.5 mg per ml. Twelve rats were each given an intraperitoneal (i.p.) injection of this solution with an absolute amount of haloperidol of 0.5 mg per kilogram of body weight and an injection with PBS.
# Test Group: • Another twelve rats were treated identically, but instead of the PBS injection were given a fluorine-substituted amphetamine derivative 1-(3,4-difluorophenyl)-2-(N-ethylamino)propane (Formula III) dissolved in PBS.
# The results of the descent tests are illustrated in FIG. 1. […] The descent latency of rats treated with MDMA (5 mg/kg) was much less, at about 30 seconds, but for the rats treated with 1-(3,4-difluorophenyl)-2-(N-ethylamino)propane (fMDE, Formula (III), 5 mg/kg) it was even lower.
structure (smiles),measurement,setting,value
"CCNC(C)Cc1ccc(F)c(F)c1 (stereo not drawn) [Formula III, 1-(3,4-difluorophenyl)-2-(N-ethylamino)propane]",onset of the antidyskinetic effect,"[1]; 5 mg/kg, administration on successive days",already seen on the first day
same,number of AIMs (abnormal involuntary movements) per 4 min versus vehicle control,"[1]; 5 mg/kg, recorded 60 minutes after treatment, five successive days, FIG. 2",almost halved
same,"expression of the dyskinesias, test group versus control group",[1]; in addition to L-DOPA-methyl ester 10 mg/kg + benserazide 7.5 mg/kg,significantly reduced
same,"akinesia and rigor in the catalepsy test, test group versus control group","[2]; haloperidol 0.5 mg/kg i.p., compound dissolved in PBS, versus haloperidol + PBS",significantly less pronounced
same,descent latency,[2],even lower
"CNC(C)Cc1ccc2c(c1)OCO2 (stereo not drawn) [MDMA, 3,4-methylene dioxymethamphetamine, reference compound]",descent latency,[2],about 30 seconds
